What all share (format): in vivo
Series [1] deals with Echinochloa crus-galli var. crus-galli. Nature of the series: Test Example 5: herbicidal effect by foliage application, plastic box (symbol H). As to conditions: 320 g/ha, 3 weeks after application. Summed up: (§1)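 Visual herbicidal score, taken three weeks post-application, of seedlings sprayed on the foliage with water-diluted emulsion at a predetermined amount; plants were 14 days old, greenhouse-raised at 25° C. to 30° C.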

Series [2] concerns Stellaria media. The experiment in a line: Test Example 4: herbicidal effect by soil treatment (symbol P). The essentials:
(§2)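 Seeds were sown in sterilized diluvial soil, covered with about 1.5 cm of soil, and the soil surface was sprayed with a water-diluted emulsion of the compound at a predetermined rate. Plants grew in a greenhouse at 25° C. to 30° C.; effects were scored visually 3 weeks after application.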

Series [3] deals with Echinochloa crus-galli var. crus-galli. The experiment in a line: Test Example 4: herbicidal effect by soil treatment (symbol H). Summed up:
as §2

For another series, the system named is Monochoria vaginalis. Nature of the series: Test Example 2: herbicidal activity, application during weed generation in submerged conditions (symbol C). As to conditions: Table 23; application herbicide amount 320 g/ha; grade 0-5 by criteria of Test Example 1. The essentials:
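Weeds emerging under flooded conditions were treated with compound formulated as an emulsion and diluted with water to the intended herbicide amount, poured onto the surface of 4 cm standing water. Seeds had been co-sown in alluvial soil; plants grew at 25° C. to 30° C. and were assessed after 3 weeks.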

In the next series the test system is soybean. The experiment in a line: Test Example 4: effect on crop by soil treatment (symbol d). Conditions: for d: soybean, effect on crop grade: application herbicide amount 320 g/ha. The essentials:
(§3)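 Greenhouse culture at 25° C. to 30° C. followed sowing of seed in spots on sterilized diluvial soil with a soil cover close to 1.5 cm thick.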

Another series has as its system Digitaria ciliaris. Nature of the series: Test Example 4: herbicidal effect by soil treatment (symbol F). The essentials: as §2
Series [4] concerns Stellaria media. Nature of the series: Test Example 5: herbicidal effect by foliage application, plastic box (symbol P). Conditions: 320 g/ha, 3 weeks after application. The essentials: as §1
The subject of series [5] is Lolium multiflorum Lam. Nature of the series: Test Example 4: herbicidal effect by soil treatment (symbol K). The essentials:
as §2

In series [6] the test system is Lolium multiflorum Lam. Nature of the series: Test Example 5: herbicidal effect by foliage application, plastic box (symbol K). As to conditions: 320 g/ha, 3 weeks after application. The essentials:
as §1

A further series concerns transplanted rice plant. Nature of the series: Test Example 1: effect on crop, application before weed generation in submerged conditions (symbol a). Conditions: application herbicide amount 320 g/ha. Summed up:
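Alluvial soil pots flooded to 4 cm water, sown with Echinochloa oryzacola, Scirpus juncoides and Monochoria vaginalis, then transplanted with 2.5 leaf stage rice seedlings; pre-emergence application. Greenhouse 25° C. to 30° C.; scored 0–5 by herbicidal ratio 3 weeks after application.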

The subject of series [7] is Apera spica-venti. Nature of the series: Test Example 5: herbicidal effect by foliage application, plastic box (symbol L). As to conditions: 320 g/ha, 3 weeks after application. Summed up: as §1
The subject of series [8] is Echinochloa oryzacola Vasing. Nature of the series: Test Example 1: herbicidal activity, application before weed generation in submerged conditions (symbol A). As to conditions: application herbicide amount 320 g/ha. The essentials:
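Ratings (5: ≥90%, near complete withering; 4: 70–<90%; 3: 40–<70%; 2: 20–<40%; 1: 5–<20%; 0: ≤5%) were assigned 3 weeks after the diluted emulsion was applied to the water surface of freshly sown, submerged pots.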

In series [9] the test system is Apera spica-venti. Nature of the series: Test Example 4: herbicidal effect by soil treatment (symbol L). Summed up:
as §2

A further series relates to Avena fatua. Nature of the series: Test Example 4: herbicidal effect by soil treatment (symbol I). The essentials:
as §2

A further series relates to rice. The experiment in a line: Test Example 4: effect on crop by soil treatment (symbol b). Conditions: for b: directly sowed rice plant, effect on crop grade: application herbicide amount 320 g/ha. The essentials:
as §3

Another series relates to Chenopodium album. The experiment in a line: Test Example 4: herbicidal effect by soil treatment (symbol O). Summed up: as §2
A further series concerns rapeseed. The experiment in a line: Test Example 4: effect on crop by soil treatment (symbol g). Conditions: for g: rapeseed, effect on crop grade: application herbicide amount 320 g/ha. The essentials:
as §3

Setting [10] is: application herbicide amount 320 g/ha.

On to `CON=C(C)CC1CC(O)=C(c2c(C)cc(-c3ccccc3)cc2C)C1=O` (centres unmarked) [6-015], for which the “H: Echinochloa crus-galli var. crus-galli, herbicidal effect grade” value in [1] and in series [3] (setting [10]) was 5 (Herbicidal ratio of 90% or more (almost completely withered)) throughout. Also, the “P: Stellaria media, herbicidal effect grade” value in the series with Stellaria media [2] (setting [10]) was 2 (Herbicidal ratio of 20% or higher and lower than 40%); in the series with Stellaria media [4], 3 (Herbicidal ratio of 40% or higher and lower than 70%). In addition, in the series with Monochoria vaginalis, the “Herbicidal effect grade, C: Monochoria vaginalis” value (“Herbicidal effect grade, C” for short) is 5 (Herbicidal ratio of 90% or more (almost completely withered)). Further, the “d: soybean, effect on crop grade” value in the series with soybean was 0 (Herbicidal ratio of 5% or lower (almost no effect)). The “F: Digitaria ciliaris, herbicidal effect grade” value (“F: Digitaria ciliaris” below) in the series with Digitaria ciliaris (setting [10]) is listed as 5 (Herbicidal ratio of 90% or more (almost completely withered)). In addition, the “K: Lolium multiflorum Lam., herbicidal effect grade” value with Lolium multiflorum Lam. [5] (setting [10]) and in the series with Lolium multiflorum Lam. [6] was 5 (Herbicidal ratio of 90% or more (almost completely withered)) each time. The “Effect grade on crop, a: transplanted rice plant” value in the series on transplanted rice plant is on record as 5 (Herbicidal ratio of 90% or more (almost completely withered)). The “L: Apera spica-venti, herbicidal effect grade” value in the series with Apera spica-venti [7] and in the series with Apera spica-venti [9] (setting [10]) was 5 (Herbicidal ratio of 90% or more (almost completely withered)) throughout. For the same compound, in series [8], the “Herbicidal effect grade, A: Echinochloa oryzacola Vasing.” value is on record as 5 (Herbicidal ratio of 90% or more (almost completely withered)). For the same compound, the “I: Avena fatua, herbicidal effect grade” value in the series with Avena fatua (setting [10]) was 0 (Herbicidal ratio of 5% or lower (almost no effect)). The “b: directly sowed rice plant, effect on crop grade” value with rice is given as 5 (Herbicidal ratio of 90% or more (almost completely withered)). Also, the “O: Chenopodium album, herbicidal effect grade” value (“O: Chenopodium album” for short) in the series on Chenopodium album (setting [10]) is 3 (Herbicidal ratio of 40% or higher and lower than 70%). For the same compound, the “g: rapeseed, effect on crop grade” value in the series on rapeseed was 4 (Herbicidal ratio of 70% or higher and lower than 90%).
As for `CCOC(=O)C(C(=O)C(C)C)C1CC(O)=C(c2c(C)cc(C)cc2C)C1=O` (centres unmarked) [2-009], the “H: Echinochloa crus-galli var. crus-galli, herbicidal effect grade” value is 3 (Herbicidal ratio of 40% or higher and lower than 70%) in series [1]; 1 (Herbicidal ratio of 5% or higher and lower than 20%) in series [3] (setting [10]). For the same compound, the “P: Stellaria media, herbicidal effect grade” value with Stellaria media [2] (setting [10]) and with Stellaria media [4] was 0 (Herbicidal ratio of 5% or lower (almost no effect)) each time. For the same compound, in the series with Monochoria vaginalis, the “Herbicidal effect grade, C” value is 0 (Herbicidal ratio of 5% or lower (almost no effect)). Moreover, in the series with soybean, the “d: soybean, effect on crop grade” value is on record as 0 (Herbicidal ratio of 5% or lower (almost no effect)). Also, the “F: Digitaria ciliaris” value with Digitaria ciliaris (setting [10]) was 2 (Herbicidal ratio of 20% or higher and lower than 40%). The “K: Lolium multiflorum Lam., herbicidal effect grade” value in the series with Lolium multiflorum Lam. [5] (setting [10]) was 0 (Herbicidal ratio of 5% or lower (almost no effect)); in the series on Lolium multiflorum Lam. [6], 1 (Herbicidal ratio of 5% or higher and lower than 20%). Also, the “Effect grade on crop, a: transplanted rice plant” value with transplanted rice plant is listed as 0 (Herbicidal ratio of 5% or lower (almost no effect)). Also, the “L: Apera spica-venti, herbicidal effect grade” value in the series on Apera spica-venti [7] and in the series on Apera spica-venti [9] (setting [10]) was 0 (Herbicidal ratio of 5% or lower (almost no effect)) throughout. For the same compound, the “Herbicidal effect grade, A: Echinochloa oryzacola Vasing.” value in series [8] is recorded as 0 (Herbicidal ratio of 5% or lower (almost no effect)). For the same compound, the “I: Avena fatua, herbicidal effect grade” value in the series on Avena fatua (setting [10]) is reported as 0 (Herbicidal ratio of 5% or lower (almost no effect)). For the same compound, the “b: directly sowed rice plant, effect on crop grade” value in the series with rice is listed as 5 (Herbicidal ratio of 90% or more (almost completely withered)). The “O: Chenopodium album” value with Chenopodium album (setting [10]) is 0 (Herbicidal ratio of 5% or lower (almost no effect)). For the same compound, the “g: rapeseed, effect on crop grade” value in the series on rapeseed is listed as 0 (Herbicidal ratio of 5% or lower (almost no effect)).
As for `CON=C(C)CC1CC(OC(=O)C(C)(C)c2ccc(Cl)cc2)=C(c2c(C)cc(C)cc2C)C1=O` (centres unmarked) [1-148], the “H: Echinochloa crus-galli var. crus-galli, herbicidal effect (criteria 0-5)” value in series [1] is given as 5 (Herbicidal ratio of 90% or more (almost completely withered)). Further, the “P: Stellaria media, herbicidal effect grade” value with Stellaria media [2] (320 g/ha) is given as 0 (Herbicidal ratio of 5% or lower (almost no effect)). For the same compound, the “H: Echinochloa crus-galli var. crus-galli, herbicidal effect grade” value in series [3] (320 g/ha) is recorded as 5 (Herbicidal ratio of 90% or more (almost completely withered)). The “Herbicidal effect grade, C” value with Monochoria vaginalis was 4 (Herbicidal ratio of 70% or higher and lower than 90%). Also, the “d: soybean, effect grade on crop” value in the series on soybean (320 g/ha) was 0 (Herbicidal ratio of 5% or lower (almost no effect)). Further, in the series with Digitaria ciliaris (320 g/ha), the “F: Digitaria ciliaris” value is given as 5 (Herbicidal ratio of 90% or more (almost completely withered)). Also, the “P: Stellaria media, herbicidal effect (criteria 0-5)” value in the series on Stellaria media [4] is 3 (Herbicidal ratio of 40% or higher and lower than 70%). Further, the “K: Lolium multiflorum Lam., herbicidal effect grade” value in the series on Lolium multiflorum Lam. [5] (320 g/ha) was 5 (Herbicidal ratio of 90% or more (almost completely withered)). In the series on Lolium multiflorum Lam. [6], the “K: Lolium multiflorum Lam., herbicidal effect (criteria 0-5)” value was 5 (Herbicidal ratio of 90% or more (almost completely withered)). In the series with transplanted rice plant, the “Effect grade on crop, a: transplanted rice plant” value was 5 (Herbicidal ratio of 90% or more (almost completely withered)). Further, the “L: Apera spica-venti, herbicidal effect (criteria 0-5)” value in the series on Apera spica-venti [7] is on record as 5 (Herbicidal ratio of 90% or more (almost completely withered)). Besides, the “Herbicidal effect grade, A: Echinochloa oryzacola Vasing.” value in series [8] is listed as 5 (Herbicidal ratio of 90% or more (almost completely withered)). In the series on Apera spica-venti [9] (320 g/ha), the “L: Apera spica-venti, herbicidal effect grade” value is recorded as 5 (Herbicidal ratio of 90% or more (almost completely withered)). In the series with Avena fatua (320 g/ha), the “I: Avena fatua, herbicidal effect grade” value was 0 (Herbicidal ratio of 5% or lower (almost no effect)). Moreover, the “b: directly sowed rice plant, effect grade on crop” value in the series on rice (320 g/ha) is on record as 5 (Herbicidal ratio of 90% or more (almost completely withered)). Further, in the series on Chenopodium album (320 g/ha), the “O: Chenopodium album” value is 0 (Herbicidal ratio of 5% or lower (almost no effect)). Also, the “g: rapeseed, effect grade on crop” value with rapeseed (320 g/ha) is 4 (Herbicidal ratio of 70% or higher and lower than 90%).
Turning to `COCC(=O)CC1CC(O)=C(c2c(C)cc(C)cc2C)C1=O` (centres unmarked) [2-007], the “H: Echinochloa crus-galli var. crus-galli, herbicidal effect grade” value in series [1] is 1 (Herbicidal ratio of 5% or higher and lower than 20%); in series [3] (setting [10]), 5 (Herbicidal ratio of 90% or more (almost completely withered)). The “P: Stellaria media, herbicidal effect grade” value is 0 (Herbicidal ratio of 5% or lower (almost no effect)) in the series with Stellaria media [2] (setting [10]); 2 (Herbicidal ratio of 20% or higher and lower than 40%) in the series on Stellaria media [4]. The “Herbicidal effect grade, C” value in the series with Monochoria vaginalis was 0 (Herbicidal ratio of 5% or lower (almost no effect)). For the same compound, in the series with soybean, the “d: soybean, effect on crop grade” value is listed as 0 (Herbicidal ratio of 5% or lower (almost no effect)). In addition, the “F: Digitaria ciliaris” value in the series on Digitaria ciliaris (setting [10]) is 5 (Herbicidal ratio of 90% or more (almost completely withered)). The “K: Lolium multiflorum Lam., herbicidal effect grade” value is 5 (Herbicidal ratio of 90% or more (almost completely withered)) with Lolium multiflorum Lam. [5] (setting [10]); 4 (Herbicidal ratio of 70% or higher and lower than 90%) in the series on Lolium multiflorum Lam. [6]. In the series with transplanted rice plant, the “Effect grade on crop, a: transplanted rice plant” value is 4 (Herbicidal ratio of 70% or higher and lower than 90%). The “L: Apera spica-venti, herbicidal effect grade” value with Apera spica-venti [7] is 3 (Herbicidal ratio of 40% or higher and lower than 70%); in the series on Apera spica-venti [9] (setting [10]) it was 3 (Herbicidal ratio of 40% or higher and lower than 70%). The “Herbicidal effect grade, A: Echinochloa oryzacola Vasing.” value in series [8] is 3 (Herbicidal ratio of 40% or higher and lower than 70%). For the same compound, the “I: Avena fatua, herbicidal effect grade” value in the series on Avena fatua (setting [10]) is 0 (Herbicidal ratio of 5% or lower (almost no effect)). Besides, the “b: directly sowed rice plant, effect on crop grade” value in the series on rice was 5 (Herbicidal ratio of 90% or more (almost completely withered)). For the same compound, the “O: Chenopodium album” value with Chenopodium album (setting [10]) is given as 0 (Herbicidal ratio of 5% or lower (almost no effect)). In addition, the “g: rapeseed, effect on crop grade” value with rapeseed was 4 (Herbicidal ratio of 70% or higher and lower than 90%).

The values above are taken from US11000033B2, “Ketone or oxime compound, and herbicide” (NISSAN CHEMICAL CORPORATION, priority 2014, dated 2021).
